Measured values from ChEMBL document CHEMBL4837230, “Thiophene-2-carboxamide derivatives of anthraquinone: A new potent antitumor chemotype” (Eur J Med Chem, 2021).
The source made the active and inactive calls. The rule behind the calls is not given here.

Assays:
K562 [1] = test: Induction of mitochondrial membrane potential loss in human K562 cells at 7.5 uM after 6 hrs by Mitotracker Red dye based flow cytometric analysis; format: functional, cell-based
CAPAN-1 = test: Cytotoxicity in human CAPAN-1 cells assessed as reduction in cell viability incubated for 72 hrs by MTT assay; format: functional, cell-based; details: CAPAN-1, 72 h
K562 [2] = test: Induction of cell cycle arrest in human K562 cells assessed as increase in accumulation at G0/G1 phase at 2.5 uM after 2 hrs by flow cytometric analysis (reference value: 46.5%); format: functional
[3] = Resistance index, ratio of IC50 for cytotoxicity against p53 knock out human HCT-116 cells to IC50 for cytotoxicity against human HCT-116 cells; format: functional
[4] = Drug localization in mitochondria of mouse NIH3T3 cells at 1 uM measured after 60 mins by MitoTracker red based confocal microscopic method; format: ADME; details: nih3t3, 1 h
[5] = biological target: T1, DNA topoisomerase 1 (Homo sapiens) (UniProt P11387); test: Inhibition of topoisomerase 1 (unknown origin) assessed as relaxation of supercoiled plasmid pBR322 DNA at 1 to 5 uM incubated for 30 mins by electrophoresis; details: dose 1-5 µM
T1 sequence (whole entry): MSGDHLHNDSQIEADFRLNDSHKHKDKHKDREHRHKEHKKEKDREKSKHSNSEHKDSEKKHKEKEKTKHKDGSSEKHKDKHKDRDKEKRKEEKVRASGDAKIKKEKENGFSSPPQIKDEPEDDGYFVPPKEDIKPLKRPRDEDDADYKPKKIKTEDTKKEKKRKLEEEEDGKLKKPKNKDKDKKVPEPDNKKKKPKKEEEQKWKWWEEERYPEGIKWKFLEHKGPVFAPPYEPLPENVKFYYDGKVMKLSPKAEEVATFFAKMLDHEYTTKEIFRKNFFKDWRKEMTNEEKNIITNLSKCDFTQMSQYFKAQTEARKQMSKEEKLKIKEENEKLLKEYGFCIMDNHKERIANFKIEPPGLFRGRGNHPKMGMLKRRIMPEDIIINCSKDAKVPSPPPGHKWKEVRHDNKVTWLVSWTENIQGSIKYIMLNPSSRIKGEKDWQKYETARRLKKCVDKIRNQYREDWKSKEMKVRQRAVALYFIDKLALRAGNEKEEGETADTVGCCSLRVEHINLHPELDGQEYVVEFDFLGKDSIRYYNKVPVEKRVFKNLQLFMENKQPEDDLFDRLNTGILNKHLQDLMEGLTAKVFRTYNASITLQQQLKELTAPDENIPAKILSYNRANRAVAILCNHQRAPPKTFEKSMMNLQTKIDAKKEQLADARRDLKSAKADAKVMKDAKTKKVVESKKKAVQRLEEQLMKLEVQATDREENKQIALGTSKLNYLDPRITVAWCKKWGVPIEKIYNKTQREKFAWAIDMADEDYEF

K562 [6] = test: Induction of cell cycle arrest in human K562 cells assessed as increase in accumulation at S phase at 2.5 uM after 6 hrs by flow cytometric analysis (reference value: 37%); format: functional
K562 [7] = test: Induction of apoptosis in human K562 cells assessed as activation of casapse-3 cleavage at 2.5 uM measured after 6 hrs by Western blot analysis; format: functional, cell-based
K562 [8] = test: Induction of cell cycle arrest in human K562 cells assessed as increase in accumulation at sub-G1 phase at 5 uM after 48 hrs by propidium iodide staining based flow cytometric analysis (reference value: 8.4%); format: functional
K562 [9] = test: Induction of cell cycle arrest in human K562 cells assessed as increase in accumulation at S phase at 2.5 uM after 2 hrs by flow cytometric analysis (reference value: 23.1%); format: functional
K562 [10] = test: Induction of cell cycle arrest in human K562 cells assessed as increase in accumulation at sub-G1 phase at 5 uM after 24 hrs by propidium iodide staining based flow cytometric analysis (reference value: 8.4%); format: functional
[11] = Drug localization in mitochondria of mouse NIH3T3 cells at 1 uM measured after 5 mins by MitoTracker red based confocal microscopic method; format: ADME; details: nih3t3, 5 min
[12] = Drug localization in lysosome of mouse NIH3T3 cells at 1 uM incubated for 60 mins by lyso-tracker red based confocal microscopic method; format: ADME, cell-based; details: nih3t3, 1 h
K562 [13] = test: Induction of cell cycle arrest in human K562 cells assessed as increase in accumulation at sub-G1 phase at 2.5 uM after 48 hrs by propidium iodide staining based flow cytometric analysis (reference value: 8.4%); format: functional
K562 [14] = test: Cytotoxicity in human K562 cells assessed as reduction in cell viability at 1 uM incubated with compound for 120 mins followed by cell washing and measured after 72 hrs by propidium iodide staining based flow cytometric analysis; format: functional; details: 2 h
K562 [15] = test: Induction of cell cycle arrest in human K562 cells assessed as increase in accumulation at G2/M phase at 2.5 uM by flow cytometric analysis (reference value: 11.8%); format: functional
K562 [16] = test: Cytotoxicity in human K562 cells assessed as reduction in cell viability incubated for 72 hrs by MTT assay; format: functional, cell-based; details: K562, 72 h
[17] = Drug localization in lysosome of mouse NIH3T3 cells at 1 uM incubated for 5 mins by lyso-tracker red based confocal microscopic method; format: ADME, cell-based; details: nih3t3, 5 min
K562 [18] = test: Induction of cell cycle arrest in human K562 cells assessed as increase in accumulation at sub-G1 phase at 2.5 uM after 24 hrs by propidium iodide staining based flow cytometric analysis (reference value: 8.4%); format: functional
K562 [19] = test: Induction of cell cycle arrest in human K562 cells assessed as increase in accumulation at G0/G1 phase at 2.5 uM after 6 hrs by flow cytometric analysis (reference value: 14.1%); format: functional
K562 [20] = test: Induction of cell cycle arrest in human K562 cells assessed as increase in accumulation at sub-G1 phase at 2.5 uM after 6 hrs by flow cytometric analysis (reference value: 22.1%); format: functional
K562 [21] = test: Cytotoxicity against human K562 cells in presence of NAC; format: functional, cell-based
HeLa = test: Cytotoxicity in human HeLa cells assessed as reduction in cell viability incubated for 72 hrs by MTT assay; format: functional, cell-based
K562 [22] = test: Induction of cell cycle arrest in human K562 cells assessed as increase in accumulation at sub-G1 phase at 2.5 uM by flow cytometric analysis (reference value: 16.1%); format: functional
K562 [23] = test: Induction of cell cycle arrest in human K562 cells assessed as increase in accumulation at S phase at 2.5 uM after 4 hrs by flow cytometric analysis (reference value: 47.1%); format: functional
HL-60 = test: Cytotoxicity in human HL-60 cells assessed as reduction in cell viability incubated for 72 hrs by MTT assay; format: functional, cell-based; details: HL-60, 72 h
K562 [24] = test: Induction of cell cycle arrest in human K562 cells assessed as increase in accumulation at G2/M phase at 2.5 uM after 4 hrs by flow cytometric analysis (reference value: 19.7%); format: functional
K562 [25] = test: Cytotoxicity in human K562 cells assessed as reduction in cell viability at 1 uM incubated for 72 hrs by propidium iodide staining based flow cytometric analysis; format: functional
K562 [26] = test: Induction of cell cycle arrest in human K562 cells assessed as increase in accumulation at G0/G1 phase at 2.5 uM by flow cytometric analysis (reference value: 60.9%); format: functional

N[C@H]1CCN(C(=O)c2cc3c(O)c4c(c(O)c3s2)C(=O)c2ccccc2C4=O)C1
Activity (K562 [1]): inactive
IC50 (CAPAN-1): 0.7 µM
Activity (K562 [2]): 40.4%
Ratio [3]: 1
Drug uptake [4]: Active
inhibition [5]: inactive
Activity (K562 [6]): 29.8%
Activity (K562 [7]): Active
Activity (K562 [8]): 89.7%
Activity (K562 [9]): 27.8%
Activity (K562 [10]): 78.4%
Drug uptake [11]: Not Active
Drug uptake [12]: Active
Activity (K562 [13]): 84.5%
Activity (K562 [14]): 56.4%
Activity (K562 [15]): 14%
IC50 (K562 [16]): 0.3 µM
Drug uptake [17]: Active
Activity (K562 [18]): 76.7%
Activity (K562 [19]): 31.7%
Activity (K562 [20]): 24.6%
Activity (K562 [21]): Active
IC50 (HeLa): 0.4 µM
Activity (K562 [22]): 14.9%
Activity (K562 [23]): 40.1%
IC50 (HL-60): 0.3 µM
Activity (K562 [24]): 17.3%
Activity (K562 [25]): 79.9%
Activity (K562 [26]): 59.1%
